Measurements: patent publication US20240092739A1, “COMPOUNDS AND METHODS OF USE” (Ferro Therapeutics, Inc, priority 2020, published 2024)
Where two headings read alike, the source gives them in different places.

How the values were obtained:
[1] = test system: 786-O (renal cell carcinoma) cells; assay: Cell proliferation (Alamar Blue) assay, 786-O cells; format: cell-based; conditions: Homo sapiens, 786-0, 786-O cells, Alamar Blue
Description: (§1) Cell viability assay was performed to assess the potency of the compounds in human cancer cell lines 786-0 (renal cell carcinoma) and SJSA-1 (osteosarcoma). Additional cell lines, such as pancreatic cancer cell lines (Panc 02.13, BxPC-3, Panc 12, Panc 02.03, Panc 6.03, PSN-1, HPAC, and Capan-1), prostate cancer cell lines (PC-3, DU145, […], NCI-H660, 1PH1 LNCaP, BM-1604, and MDA PCa 2b), etc., can be tested in a similar method.
(§2) Cells (SJSA-1, 786-0 and A431) were seeded (5000 cells/100 μL/well) in 96-well tissue culture plate and incubated at 37° C./500 CO2 for 16-24 hours. The cells were then treated with compounds (25 μL of 5×). The compound concentrations were 10-0.0005 μM prepared in 3-fold serial dilutions with final DMSO concentration of 1%. The plates were then incubated for 24 h at 37° C./[…] in a moist environment. Then Alamar Blue™ reagent (final concentration 1×-12.5 μL) was added to each well and incubated for 1.5 hours at 37° C./500 CO2. The plates were read on fluorescence reader at 540 nm excitation and 590 nm emission wavelengths. The IC50 values were subsequently determined using a sigmoidal dose-response curve (variable slope) in GraphPad Prism® 5 software. Tables A-3 and B-11 show cell proliferation data for exemplary compounds as described herein.

[2] = test system: 786-O cells + Ferrastatin-1; assay: GPX4 inhibition assay: cell proliferation (Alamar Blue) in 786-O cells with ferrostatin rescue; format: cell-based, human
Description: as §2
Studies have shown that lipophilic antioxidants, such as ferrostatin, can rescue cells from GPX4 inhibition-induced ferroptosis. For instance, mesenchymal state GPX4-knockout cells can survive in the presence of ferrostatin, however, when the supply of ferrostatin is terminated, these cells undergo ferroptosis (see, e.g., Viswanathan et al., Nature 547:453-7, 2017). […] Accordingly, the ability of a molecule to induce ferroptotic cancer cell death, and that such ability is admonished by the addition of ferrostatin, is clear indication that the molecule is an GPX4 inhibitor. Cell proliferation data for exemplary compounds with and without ferrostatin can be seen in Table A-3.

A431 cells = assay: Cell proliferation (Alamar Blue) assay, A431 cells; format: cell-based; conditions: Homo sapiens, A-431, A431 cells, Alamar Blue
Description: as §1, §2

[3] = 24 h compound incubation, read-out: Cell proliferation IC50 (μM) 786-O
[4] = 786-O cells with Ferrastatin-1 (rescue), read-out: Cell proliferation IC50 (μM) 786-O + Ferrastatin-1
[5] = 24 h compound incubation, read-out: Cell proliferation IC50 (μM) A431
[6] = 24 h compound treatment, read-out: IC50 (μM) 786-O
[7] = 786-O cells in presence of Ferrastatin-1 (rescue), read-out: IC50 (μM) 786-O + Ferrastatin-1
[8] = 24 h compound treatment, read-out: IC50 (μM) A431

CCCC[C@H]1Cc2cc(OC)ccc2[C@H](C23CC(F)(C2)C3)N1C(=O)C#C[Si](C)(C)C [Compound A-9, 1-((1S,3S)-3-butyl-1-(3-fluorobicyclo[1.1.1]pentan-1-yl)-6-methoxy-3,4-dihydroisoquinolin-2(1H)-yl)-3-(trimethylsilyl)prop-2-yn-1-one]
IC50 [1, 3]: 0.18 µM
IC50 [2, 4]: > 1 µM
IC50 (A431 cells; [5]): > 1 µM

CCCC[C@H]1Cc2cc(OC)ccc2[C@@H](C23CC(F)(C2)C3)N1C(=O)C#C[Si](C)(C)C [Compound A-10, 1-((1R,3S)-3-butyl-1-(3-fluorobicyclo[1.1.1]pentan-1-yl)-6-methoxy-3,4-dihydroisoquinolin-2(1H)-yl)-3-(trimethylsilyl)prop-2-yn-1-one]
IC50 [1, 3]: 0.075 µM
IC50 [2, 4]: > 1 µM
IC50 (A431 cells; [5]): > 1 µM

CCCC[C@H]1Cc2cc(OC)ccc2[C@H](c2ccc(NC3CC(F)(F)C3)cc2)N1C(=O)C#C[Si](C)(C)C [Compound A-11, 1-((1S,3S)-3-butyl-1-(4-((3,3-difluorocyclobutyl)amino)phenyl)-6-methoxy-3,4-dihydroisoquinolin-2(1H)-yl)-3-(trimethylsilyl)prop-2-yn-1-one]
IC50 [1, 3]: 0.109 µM
IC50 [2, 4]: > 1 µM
IC50 (A431 cells; [5]): > 1 µM

CCCC[C@H]1Cc2cc(OC)ccc2[C@H](c2ccc(N3CCC(F)(F)C3)cc2)N1C(=O)C#C[Si](C)(C)C [Compound A-12, 1-((1S,3S)-3-butyl-1-(4-(3,3-difluoropyrrolidin-1-yl)phenyl)-6-methoxy-3,4-dihydroisoquinolin-2(1H)-yl)-3-(trimethylsilyl)prop-2-yn-1-one]
IC50 [1, 3]: 0.051 µM
IC50 [2, 4]: > 1 µM
IC50 (A431 cells; [5]): > 1 µM

CCCC[C@H]1Cc2cc(OC(F)(F)F)ccc2[C@H](c2ccc(NC34CC5CC(CC(C5)C3)C4)cc2)N1C(=O)C#C[Si](C)(C)C [Compound A-26, 1-((1S,3S)-1-(4-(((3R,5R,7R)-adamantan-1-yl)amino)phenyl)-3-butyl-6-(trifluoromethoxy)-3,4-dihydroisoquinolin-2(1H)-yl)-3-(trimethylsilyl)prop-2-yn-1-one]
IC50 [1, 3]: 0.043 µM
IC50 [2, 4]: 4.19 µM
IC50 (A431 cells; [5]): 3.05 µM

CCCC[C@H]1Cc2cc(C(F)(F)F)ccc2[C@H](c2ccc(NC34CC5CC(CC(C5)C3)C4)cc2)N1C(=O)C#C[Si](C)(C)C [Compound A-28]
IC50 [1, 3]: 0.015 µM
IC50 [2, 4]: 3.58 µM
IC50 (A431 cells; [5]): 2.94 µM

CCCC[C@H]1Cc2cc(OC)ccc2[C@H](c2ccc(NC34CC5CC(CC(C5)C3)C4)cc2)N1C(=O)C#C[Si](C)(C)CCCOC(C)=O [Compound A-41]
IC50 [1, 3]: 0.0125 µM
IC50 [2, 4]: 1.86 µM
IC50 (A431 cells; [5]): 0.563 µM

COc1ccc2c(c1)C[C@H](CC(C)C)N(C(=O)C#C[Si](C)(C)C)[C@H]2c1ccc(NC23CC4CC(CC(C4)C2)C3)cc1 [Compound A-43]
IC50 [1, 3]: 0.0725 µM
IC50 [2, 4]: 2.13 µM
IC50 (A431 cells; [5]): 1.83 µM

CCCC[C@H]1Cc2cc(OCCO)ccc2[C@H](c2ccc(NC34CC5CC(CC(C5)C3)C4)cc2)N1C(=O)C#C[Si](C)(C)C [Compound A-44]
IC50 [1, 3]: 0.0053 µM
IC50 [2, 4]: 2.82 µM
IC50 (A431 cells; [5]): 2.24 µM

CCCC[C@H]1Cc2cc(OC)ccc2[C@H](c2ccc(NC34CC5CC(C3)CC(OC(=O)[C@@H](N)C(C)C)(C5)C4)cc2)N1C(=O)C#C[Si](C)(C)C [Compound A-45]
IC50 [1, 3]: 0.0177 µM
IC50 [2, 4]: 2.04 µM
IC50 (A431 cells; [5]): 1.7 µM

CCCC[C@H]1Cc2cc(OC)ccc2[C@H](c2ccc(NC34CC5CC(CC(O)(C5)C3)C4)cc2)N1C(=O)C#C[Si](C)(C)C [Compound A-47]
IC50 [1, 3]: 0.049 µM
IC50 [2, 4]: 2.33 µM
IC50 (A431 cells; [5]): 1.63 µM

C#CC(=O)N1[C@@H](CCCC)Cc2cc(OC)ccc2[C@@H]1c1ccc(NC23CC4CC(CC(O)(C4)C2)C3)cc1 [Compound B-13]
IC50 [1, 6]: 0.055 µM
IC50 [2, 7]: 2.01 µM
IC50 (A431 cells; [8]): 1.49 µM

C#CC(=O)N1[C@@H](CCCC)Cc2cc(CCC(=O)O)ccc2[C@@H]1c1ccc(NC23CC4CC(CC(C4)C2)C3)cc1 [Compound B-55]
IC50 [1, 6]: 0.046 µM
IC50 [2, 7]: ≥ 10 µM
IC50 (A431 cells; [8]): ≥ 10 µM

C#CC(=O)N1[C@@H](CCCC)Cc2cc(CCCO)ccc2[C@@H]1c1ccc(NC23CC4CC(CC(C4)C2)C3)cc1 [Compound B-56]
IC50 [1, 6]: 0.012 µM
IC50 [2, 7]: 1.27 µM
IC50 (A431 cells; [8]): 0.117 µM

C#CC(=O)N1[C@@H](CCCC)Cc2cc(OCCOC(=O)CN)ccc2[C@@H]1c1ccc(NC23CC4CC(CC(C4)C2)C3)cc1 [Compound B-57]
IC50 [1, 6]: 0.005 µM
IC50 [2, 7]: 2.81 µM
IC50 (A431 cells; [8]): 2.88 µM

C#CC(=O)N1[C@@H](CCCC)Cc2cc(NC(=O)C3CCCN3)ccc2[C@@H]1c1ccc(NC23CC4CC(CC(C4)C2)C3)cc1 (stereo partly drawn) [Compound B-58]
IC50 [1, 6]: 0.011 µM
IC50 [2, 7]: 2.36 µM
IC50 (A431 cells; [8]): 0.856 µM

C#CC(=O)N1[C@@H](CCCC)Cc2cc(OC)ccc2[C@@H]1c1ccc(NC2CCC2)c(Cl)c1 [Compound B-59]
IC50 [1, 6]: 0.052 µM
IC50 [2, 7]: 5.84 µM
IC50 (A431 cells; [8]): 2.37 µM

C#CC(=O)N1[C@@H](CCCC)Cc2cc(OCCO)ccc2[C@@H]1c1ccc(NC23CC4CC(CC(C4)C2)C3)cc1 [Compound B-60]
IC50 [1, 6]: 0.005 µM
IC50 [2, 7]: 2.18 µM
IC50 (A431 cells; [8]): 2.12 µM

C#CC(=O)N1[C@@H](CCCC)Cc2cc(C(N)=O)ccc2[C@@H]1c1ccc(NC23CC4CC(CC(C4)C2)C3)cc1 [Compound B-61]
IC50 [1, 6]: 0.012 µM
IC50 [2, 7]: 1.28 µM
IC50 (A431 cells; [8]): 3.54 µM

C#CC(=O)N1[C@@H](CCCC)Cc2cc(CO)ccc2[C@@H]1c1ccc(NC23CC4CC(CC(C4)C2)C3)cc1 [Compound B-62]
IC50 [1, 6]: 0.005 µM
IC50 [2, 7]: 7.15 µM
IC50 (A431 cells; [8]): 2.43 µM

C#CC(=O)N1[C@@H](CCCC)Cc2cc(C(F)F)ccc2[C@@H]1c1ccc(NC23CC4CC(CC(C4)C2)C3)cc1 [Compound B-63]
IC50 [1, 6]: 0.009 µM
IC50 [2, 7]: 0.939 µM
IC50 (A431 cells; [8]): 0.727 µM

C#CC(=O)N1[C@@H](CCCC)Cc2cc(OCc3cn(CCOCCOCCOCCNC(=O)CCCC[C@@H]4SC[C@@H]5NC(=O)N[C@@H]54)nn3)ccc2[C@@H]1c1ccc(NC23CC4CC(CC(C4)C2)C3)cc1 [Compound B-65]
IC50 [1, 6]: ≥ 10 µM
IC50 [2, 7]: ≥ 10 µM
IC50 (A431 cells; [8]): ≥ 10 µM

C#CC(=O)N1[C@@H](CCCC)Cc2cc(OC)ccc2[C@@H]1c1ccc(NC23CC4CC(CC(C4)C2)C3)c(Cl)c1 [Compound B-66]
IC50 [1, 6]: 0.055 µM
IC50 [2, 7]: 2.62 µM
IC50 (A431 cells; [8]): 3.15 µM

C#CC(=O)N1[C@@H](CCCC)Cc2cc(OC)ncc2[C@@H]1c1ccc(NC23CC4CC(CC(C4)C2)C3)cc1 [Compound B-67]
IC50 [1, 6]: 0.005 µM
IC50 [2, 7]: 1.19 µM
IC50 (A431 cells; [8]): 1.13 µM

C#CC(=O)N1[C@@H](CCCC)Cc2cc(OC)ncc2[C@H]1c1ccc(NC23CC4CC(CC(C4)C2)C3)cc1 [Compound B-68]
IC50 [1, 6]: 0.042 µM
IC50 [2, 7]: 2.61 µM
IC50 (A431 cells; [8]): 2.35 µM

C#CC(=O)N1[C@@H](CCCC)Cc2c(OC)cccc2[C@@H]1c1ccc(NC23CC4CC(CC(C4)C2)C3)cc1 [Compound B-69]
IC50 [1, 6]: 0.015 µM
IC50 [2, 7]: 2.47 µM
IC50 (A431 cells; [8]): 1.79 µM

C#CC(=O)N1[C@@H](CCCC)Cc2cc(OCCOC)ccc2[C@@H]1c1ccc(NC23CC4CC(CC(C4)C2)C3)cc1 [Compound B-70]
IC50 [1, 6]: 0.012 µM
IC50 [2, 7]: 1.59 µM
IC50 (A431 cells; [8]): 2.08 µM

C#CC(=O)N1[C@@H](CC(C)C)Cc2cc(OC)ccc2[C@@H]1c1ccc(NC23CC4CC(CC(C4)C2)C3)cc1 [Compound B-71]
IC50 [1, 6]: 0.066 µM
IC50 [2, 7]: 1.71 µM
IC50 (A431 cells; [8]): 1.18 µM

C#CC(=O)N1[C@@H](CCC(C)C)Cc2cc(OC)ccc2[C@@H]1c1ccc(NC23CC4CC(CC(C4)C2)C3)cc1 [Compound B-72]
IC50 [1, 6]: 0.036 µM
IC50 [2, 7]: 1.6 µM
IC50 (A431 cells; [8]): 1.7 µM

C#CC(=O)N1[C@@H](CCCC)Cc2cc(OC)ccc2[C@@H]1c1cccc(NC23CC4CC(CC(C4)C2)C3)c1 [Compound B-74]
IC50 [1, 6]: 0.025 µM
IC50 [2, 7]: 1.91 µM
IC50 (A431 cells; [8]): 3.06 µM

C#CC(=O)N1[C@@H](CCCC)Cc2cc(C(F)(F)F)ccc2[C@@H]1c1ccc(NC23CC4CC(CC(C4)C2)C3)cc1 [Compound B-77]
IC50 [1, 6]: 0.012 µM
IC50 [2, 7]: 1.21 µM
IC50 (A431 cells; [8]): 0.557 µM

C#CC(=O)N1[C@@H](CCCC)Cc2cc(C#N)ccc2[C@@H]1c1ccc(NC23CC4CC(CC(C4)C2)C3)cc1 [Compound B-78]
IC50 [1, 6]: 0.004 µM
IC50 [2, 7]: 0.662 µM
IC50 (A431 cells; [8]): 0.569 µM

C#CC(=O)N1[C@@H](CCCC)Cc2cc(OC(F)(F)F)ccc2[C@@H]1c1ccc(NC23CC4CC(CC(C4)C2)C3)cc1 [Compound B-79]
IC50 [1, 6]: 0.017 µM
IC50 [2, 7]: 1 µM
IC50 (A431 cells; [8]): 7 µM
